# US4341792A, “Heterobicyclic keto- and amino-acids, esters and amides” (Pfizer Inc., priority 1979, dated 1982)
# What was measured:
# [1] = system: diaphragm tissue from fat-fed rats (pyruvate oxidation); experiment: Pyruvate oxidation by diaphragm tissue from fat-fed rats in vitro (carbon-14 from labelled pyruvate into carbon dioxide); assay type: cell-based; details: fat-fed rat diaphragm, read-out: % Stimulation (pyruvate oxidation); for activation at 500 µM: concentration 0.5 m. mol.; for activation at 1000 µM: concentration 1 m. mol.; for activation at 2000 µM: concentration 2 m. mol.
# Method: (1) increase the oxidation of glucose and/or pyruvate by isolated rat muscle preparations in vitro; The compounds of formulae (I) and (II) have been tested for their ability to increase the oxidation of glucose and/or pyruvate as follows: Diaphragm tissue is obtained from rats fed on a high fat diet similar to `Diet B` described by Zaragoza and Felber, Horm. Metab. Res., 2, 323 (1970). Pyruvate oxidation by such tissue is assessed by measurement of the rate of incorporation of carbon-14 from carbon-14-labelled pyruvate into carbon dioxide in vitro, as described by Bringold, Eur. J. Biochem., 26, 360 (1972). The rate of pyruvate oxidation is depressed by 50-75% compared with that by diaphragm tissue from rats fed on a normal diet. When the compounds of the invention are added to the medium, they are found to stimulate pyruvate oxidation by diaphragm tissue from fat-fed rats in a dose dependent manner.
# [2] = system: pyruvate dehydrogenase enzyme (PDH); experiment: Increase in proportion of active form of pyruvate dehydrogenase (PDHa/PDHt) in hearts of fat-fed rats in vivo; details: fat-fed rat heart
# Method: (2) increase the proportion of the active form of the enzyme pyruvate dehydrogenase (PDH) in organs of animals (e.g., rat heart) in vivo; and The ability of the compounds of this invention to increase the proportion of the active form of the pyruvate dehydrogenase enzyme has been measured in the following test: Rats fed on a high fat diet as in the previous test, are treated either with placebo or with the compound of formula (I) or (II) by sub-cutaneous or intravenous injection or by oral administration. After 11/2 hours the rat hearts are removed and homogenized under conditions which minimize changes in the proportion of the pyruvate dehydrogenase enzyme (PDH) which is present in the active form, as described by Whitehouse and Randle, Biochem, J., 134, 651 (1973). The total amount of the enzyme present (PDHt) and the amount which is present in the active form (PDHa) are assessed by a method similar to that described by Taylor et al., J. Biol. Chem., 248, 73 (1973). The fat-feeding process is found to depress the ratio […] from a normal value of about 0.7 to a value in the range from 0.1 to 0.3. Treatment of fat-fed rats with the compounds of formula (I) or (II) parenterally increases this ratio in a dose-dependent manner. The increase in […] ration affected by certain of the compounds when administered by subcutaneous infection at the dosage indicated is shown in the following table: […]
# [3] = 0.6 mmol/kg subcutaneous, placebo 0.12
smiles,measurement,setting,value
"O=C(O)C(=O)c1ccc2c(c1)CCCO2 [Example 4, 6-Chromanylglyoxylic Acid]",activation at 500 µM,[1],69%
"NC(=O)C(N)c1ccc2occc2c1 (racemic) [Example 10, DL-2-[5-Benzo(b)furanyl]glycinamide]",activation at 500 µM,[1],46%
"O=C(O)C(=O)c1ccc2c(c1)CCS2 [Example 2, 2,3-Dihydro-5-benzo(b)thienylglyoxylic Acid]",activation at 1000 µM,[1],105%
same,PDHa/PDHt ratio,"[2]; 1.2 mmol/kg subcutaneous, placebo 0.27",0.48
"Cc1cc2cc(C(=O)C(=O)O)ccc2o1 [Example 12, 2-Methyl-5-benzo(b)furanylglyoxylic Acid]",activation at 500 µM,[1],58%
same,PDHa/PDHt ratio,"[2]; 0.3 mmol/kg subcutaneous, placebo 0.12",0.36
"NC(=O)C(N)c1ccc2c(c1)CCS2 (racemic) [Example 15, DL-2-[2,3-Dihydro-5-benzo(b)thienyl]glycinamide]",activation at 2000 µM,[1],11%
"O=C(O)C(=O)c1ccc2c(c1)CCO2 [Example 3, 2,3-Dihydro-5-benzo(b)furanylglyoxylic Acid]",activation at 1000 µM,[1],128%
same,PDHa/PDHt ratio,"[2]; 0.3 mmol/kg subcutaneous, placebo 0.11",0.21
"NC(C(=O)O)c1ccc2c(c1)CCS2 (racemic) [Example 13, DL-2-[2,3-Dihydro-5-benzo(b)thienyl]glycine]",activation at 500 µM,[1],21%
"COCCNC(=O)C(N)c1ccc2c(c1)CCO2.Cl (racemic) [Example 7, DL-N-(2-Methoxyethyl)-α-amino-2,3-dihydro-5-benzo(b)furanylacetamide Hydrochloride]",activation at 500 µM,[1],23%
same,PDHa/PDHt ratio,[2]; [3],0.47
"O=C(O)C(=O)c1ccc2oc(-c3ccccc3)cc2c1 [Example 11, 2-Phenyl-5-benzo(b)furanyl Glyoxylic Acid]",activation at 2000 µM,[1],99%
same,PDHa/PDHt ratio,"[2]; 0.3 mmol/kg subcutaneous, placebo 0.20",0.26
"NC(=O)C(N)c1ccc2c(c1)CCO2 (racemic) [Example 6, DL-α-Amino-2,3-dihydro-5-benzo(b)furanylacetamide]",activation at 500 µM,[1],29%
same,PDHa/PDHt ratio,[2]; [3],0.46
"O=C(O)C(=O)c1ccc2occc2c1 [Example 8, 5-Benzo(b)furanylglyoxlic Acid]",activation at 500 µM,[1],95%
"NC(C(=O)O)c1ccc2occc2c1 (racemic) [Example 9, DL-2-[5-Benzo(b)furanyl]glycine]",activation at 500 µM,[1],42%
